Measured values from patent US4607023A, “Natriuretic” (L'Institut de Recherches Cliniques de Montreal, priority 1983, dated 1986).
Entries after “also recorded” stand apart in the source; their conditions may differ. Bridge positions count the residues as written; N and C are the ends.

Legend:
[1] = tested on: female Sprague-Dawley rats; assay: Natriuretic and diuretic bioassay: urinary Na+ excretion after i.v. bolus in anesthetized rats; type: in vivo, rat; conditions: for natriuretic activity, comparison in words (FIG. 12): 15 to 1350 pmoles i.v. bolus, change of Na+ excretion per 20 min, at least four rats per dose
Procedure: Diuretic and natriuretic activities of the ANFs are determined by the method of Garcia et al., (1982) Experientia 38, 1071-1073 and of Thibault et al., (1983) Hypertension 5, (Suppl. I), 75-80, both cited above, in female Sprague-Dawley rats (180-200 g) anesthetized with pentobarbital (60 mg/kg i.p.) equipped with a bladder catheter and an intrajugular vein catheter. The animals receive an infusion of 5% dextrose (3 ml/hr) for 45 minutes before the assay and during the evaluation period. Urine is collected in pre-weighed vials for 20 minute intervals. Following a basal collection period the ANFs to be assayed are injected as a bolus of 1 ml in Krebs solution pH 7.4 via the intrajugular vein catheter, urine is collected for a 20 minute period, and sodium concentrations are determined by flame photometry. Results are expressed as μEq of Na^+ for the collection period of 20 minutes from which the sodium excretion of the control period has been subtracted (ΔμEq Na^+ /20 min), and specific activity is defined as ΔμEq Na^+ /20 min/mg of protein. Protein is measured by the Bradford assay, see Spector, T. (1978) Anal. Biochem. 86, 142-146, with bovine albumin as a standard except for substantially pure ANFs where the amount of peptide is estimated from the amino acid sequencer.
Generally, in the purification procedures described above, unless otherwise specified all procedures are carried out at 4° C. At the end of each chromatographic step the material is lyophilized and then stored at -20° C. until used. For small volume (<6 ml) lyophilization is carried out in polystyrene tubes (1.5×7 cm) in a Savant Speed Vac concentrator. Larger volumes in the first steps are lyophilized in glass flasks. For subsequent steps, samples are dissolved in 1 to 3 ml of 0.01M ammonium acetate, pH 5.0, and aliquots are taken for the biological assay (Garcia et al., (1982) Experientia 38, 1071-1073, cited above) which are done in duplicate.
Generally, in the purification procedures discussed above, unless otherwise specified all procedures were carried out at 4° C. At the end of each chromatographic step the material was lyophilized and then stored at -20° C. until used. For small volume (<6 ml) lyophilization was carried out in polystyrene tubes (1.5×7 cm) in a Savant Speed Vac concentrator. Larger volumes in the first steps were lyophilized in glass flasks. For subsequent steps, samples were dissolved in 1 to 3 ml of 0.01M ammonium acetate, pH 5.0. Aliquots were taken for the biological assay (Garcia et al. (1982) Experientia 38, 1071-1073) which were done in duplicate. Proteins were measured by the Bradford assay (Spector, T. (1978) Anal. Biochem. 86, 142-146) with bovine albumin as a standard except in the last step where the amount of peptides was estimated from the amino acid sequencer.
The natriuretic activities of native ANF(2-33), ANF(3-33) and synthetic ANF(8-33) acid or amide forms were determined by a biological assay (Garcia, R., Cantin, M., Thibault, G., Ong, H. and Genest, J. (1982) Experientia 38: 1071-1073; Thibault, G., Garcia, R., Cantin, M., and Genest, J. (1983) Hypertension 5 (Suppl. I): 75-83), both references cited above. Female Sprague-Dawley rats (180-200 g) were used as bioassay animals. They were anesthetized with pentobarbital (60 mg/kg i.p.) and a bladder catheter and an intrajugular vein catheter were installed. The animals received a 5% (W/V) dextrose infusion (2.1 ml/hr) 30 minutes before the assay and during the evaluation period. Urine was collected in preweighed vials for 20-minute intervals. After a basal collection period, the ANF peptides (native ANF(2-33) or (3-33) or synthetic (8-33) acid or amide forms; 15 to 1350 pmoles) were injected in a bolus injection in 1 ml of Krebs solution, pH 7.4. Each dose was injected in at least four rats. The sodium concentration was measured by a flame photometer. The results are expressed in terms of change of Na^+ excretion per 20 min±SEM.

[2] = tested on: rabbit renal arteries (helical vascular strips); assay: Vasorelaxant activity in vitro on norepinephrine-contracted rabbit renal artery strips; type: cell-based; conditions: 0.25 μg peptide added to the bath 5 min before the cumulative NE curve; p<0.01
Procedure: The vasorelaxant activities of the ANFs of this invention are determined in vitro by means of a procedure involving the use of mammalian vascular strips. Briefly, healthy rabbits are anesthetized with sodium pentobarbital (30 mg/kg i.v.), their renal arteries are rapidly excised, fat and connective tissure are trimmed off, and the arterial issue is helically cut. The helical strips thus obtained are mounted between a fixed base and a force displacement transducer, immersed in a bath of continuously oxygenated Krebs solution at 37° C. and pH 7.4, and a tension of 500-700 mg is applied to the strip of arterial tissue. L-Norepinephrine bitartrate (NE) is added to the bath to obtain concentrations of NE ranging from 3.9×10^-6 to […], the contractions elicited by NE are registered on a polygraph, and a cumulative dose-response curve is established. Once a standard curve is reproducible it is repeated five minutes after having added 0.25 μg of the respective ANF to the bath. […]
For each arterial strip a cumulative dose-response curve to NE (L-norepinephrine bitartrate, Sigma Chemicals) ranging from 3.9×10^-6 to 1.6×10^-2 mM was obtained. […] The contraction elicited for each dose of NE is expressed as a percent of the maximum response.
Results are expressed as mean ±SEM. […]

[3] = native peptide peaks after last step, CN μBondapak column, high molecular weight region, rat bioassay

Substance | specific activity (natriuretic) [1, 3] | diuretic and natriuretic activity, general statements in words ([1]; rat bioassay) | vasorelaxant activity: displacement of the norepinephrine dose-response curve (FIG. 13) [2] | natriuretic activity, comparison in words (FIG. 12) [1] | specific activity of the material recovered (natriuretic) ([1]; after CN μBondapak reverse phase HPLC, partial inactivation of the peptide) | specific activity (natriuretic) ([1]; material at the Mono S column step, fractions 40 to 44 minutes, low molecular weight region)
H-Leu-Ala-Gly-Pro-Arg-Ser-Leu-Arg-Arg-Ser-Ser-Cys-Phe-Gly-Gly-Arg-Ile-Asp-Arg-Ile-Gly-Ala-Gln-Ser-Gly-Leu-Gly-Cys-Asn-Ser-Phe-Arg-Tyr-OH (H-LAGPRSLRRSSCFGGRIDRIGAQSGLGCNSFRY-OH; disulfide 12-28; ends not checked) [ANF(1-33), native rat atrial natriuretic factor of 33 amino acid residues, disulfide bridge Cys12-Cys28] | 297,000 μEq of Na^+ excreted/20 min/mg | biologically active | – | – | – | –
H-Gly-Pro-Arg-Ser-Leu-Arg-Arg-Ser-Ser-Cys-Phe-Gly-Gly-Arg-Ile-Asp-Arg-Ile-Gly-Ala-Gln-Ser-Gly-Leu-Gly-Cys-Asn-Ser-Phe-Arg-Tyr-OH (H-GPRSLRRSSCFGGRIDRIGAQSGLGCNSFRY-OH; disulfide 10-26; ends not checked) [ANF(3-33), native rat atrial natriuretic factor of 31 amino acid residues] | – | biologically active | displacing the response to norepinephrine (NE) to the right | comparable natriuretic activities | 84,000 μEq Na^+ excreted/20 min/mg | 131,000 μEq of Na^+ excreted/20 min/mg
H-Arg-Arg-Ser-Ser-Cys-Phe-Gly-Gly-Arg-Ile-Asp-Arg-Ile-Gly-Ala-Gln-Ser-Gly-Leu-Gly-Cys-Asn-Ser-Phe-Arg-Tyr-OH (H-RRSSCFGGRIDRIGAQSGLGCNSFRY-OH; disulfide 5-21; ends not checked) [ANF(8-33), native rat atrial natriuretic factor of 26 amino acid residues] | 450,000 μEq of Na^+ excreted/20 min/mg | more active than ANF(3-33) or ANF(1-33) | – | – | – | –
H-Ala-Gly-Pro-Arg-Ser-Leu-Arg-Arg-Ser-Ser-Cys-Phe-Gly-Gly-Arg-Ile-Asp-Arg-Ile-Gly-Ala-Gln-Ser-Gly-Leu-Gly-Cys-Asn-Ser-Phe-Arg-Tyr-OH (H-AGPRSLRRSSCFGGRIDRIGAQSGLGCNSFRY-OH; disulfide 11-27; ends not checked) [ANF(2-33), native rat atrial natriuretic factor of 32 amino acid residues] | – | – | – | slightly higher than that of the above compounds; also recorded: slightly higher than that of the other forms | – | –
